Results reported in ChEMBL document CHEMBL1201862, “PubChem BioAssay data set” (2004).
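Protocol summary: plate cells (96-well), add compound at 5 concentrations, incubate 48 h, interpolate endpoints linearly. GI50 is the concentration that inhibits growth by half.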 The source made the active and inactive calls. No stated cut-off is given here; in the data, active = GI50 up to about 1.1 µM and inactive = higher.

What was measured:
Experiment in all cases: NCI-60 cell line screen, 48 h
[1] = test system: MDA-N
[2] = test system: CAKI-1
[3] = test system: U-251
[4] = test system: MOLT-4
[5] = test system: HCT-116
[6] = test system: K562
[7] = test system: A498
[8] = test system: MDA-MB-435
[9] = test system: CCRF-CEM
[10] = test system: NCI-H226
[11] = test system: RPMI-8226
[12] = test system: OVCAR-4
[13] = test system: RXF 393
[14] = test system: 786-0
[15] = test system: SK-MEL-5
[16] = test system: SNB-19
[17] = test system: SK-OV-3
[18] = test system: HOP-62
[19] = test system: SK-MEL-2
[20] = test system: SF-539

Compound	GI50 [1]	GI50 [2]	GI50 [3]	GI50 [4]	GI50 [5]	GI50 [6]	GI50 [7]	GI50 [8]	GI50 [9]	GI50 [10]	GI50 [11]	GI50 [12]	GI50 [13]	GI50 [14]	GI50 [15]	GI50 [16]	GI50 [17]	GI50 [18]	GI50 [19]	GI50 [20]
COC(=O)c1ccc2c(O)c(O)ccc2c1	1.74 µM (inactive)	25.1 µM (inactive)	14.4 µM (inactive)	4.81 µM (inactive)	16.7 µM (inactive)	2.36 µM (inactive)	21.3 µM (inactive)	1.87 µM (inactive)	2.69 µM (inactive)	23.1 µM (inactive)	14.7 µM (inactive)	14.6 µM (inactive)	17.6 µM (inactive)	15.6 µM (inactive)	4.45 µM (inactive)	14.4 µM (inactive)	18.1 µM (inactive)	18.9 µM (inactive)	1.18 µM (inactive)	19.1 µM (inactive)
O/N=C1\SC(=N\O)/C(=N/O)S\C1=N/O	73.8 µM (inactive)	> 100 µM (inactive)	> 100 µM (inactive)	> 100 µM (inactive)	68.4 µM (inactive)	51.2 µM (inactive)	> 100 µM (inactive)	> 100 µM (inactive)	> 100 µM (inactive)	> 100 µM (inactive)	83.2 µM (inactive)	> 100 µM (inactive)	> 100 µM (inactive)	> 100 µM (inactive)	38.7 µM (inactive)	> 100 µM (inactive)	> 100 µM (inactive)	> 100 µM (inactive)	> 100 µM (inactive)	> 100 µM (inactive)
CCCCC1NC=Nc2c1ccc1c2[nH]c2ccccc21 (stereo not given)	1.75 µM (inactive)	3.77 µM (inactive)	2.95 µM (inactive)	2.05 µM (inactive)	1.91 µM (inactive)	1.87 µM (inactive)	14.4 µM (inactive)	1.88 µM (inactive)	1.67 µM (inactive)	7.62 µM (inactive)	1.84 µM (inactive)	2.7 µM (inactive)	0.713 µM (active)	1.79 µM (inactive)	1.58 µM (inactive)	4.58 µM (inactive)	5.87 µM (inactive)	5.32 µM (inactive)	3.82 µM (inactive)	3.05 µM (inactive)
CCC(C#N)(c1ccccc1)N(CCc1ccccc1)C(=O)c1ccccc1 (stereo not given)	> 100 µM (inactive)	> 100 µM (inactive)	30.3 µM (inactive)	> 100 µM (inactive)	24.8 µM (inactive)	> 100 µM (inactive)	24.2 µM (inactive)	> 100 µM (inactive)	> 100 µM (inactive)	18.5 µM (inactive)	> 100 µM (inactive)	10.8 µM (inactive)	24.5 µM (inactive)	13.3 µM (inactive)	> 100 µM (inactive)	28 µM (inactive)	32.8 µM (inactive)	15.9 µM (inactive)	67 µM (inactive)	15.6 µM (inactive)
CC(C)n1c(=O)[nH]n(-c2ccccc2)c1=O	> 100 µM (inactive)	> 100 µM (inactive)	> 100 µM (inactive)	> 100 µM (inactive)	> 100 µM (inactive)	> 100 µM (inactive)	> 100 µM (inactive)	> 100 µM (inactive)	> 100 µM (inactive)	> 100 µM (inactive)	> 100 µM (inactive)	> 100 µM (inactive)	> 100 µM (inactive)	> 100 µM (inactive)	> 100 µM (inactive)	> 100 µM (inactive)	> 100 µM (inactive)	> 100 µM (inactive)	> 100 µM (inactive)	> 100 µM (inactive)
CC(Oc1ccc(Cl)cc1Cl)C(=O)NN1C(=O)CSC1c1ccccc1 (stereo not given)	> 100 µM (inactive)	20.4 µM (inactive)	76.4 µM (inactive)	> 100 µM (inactive)	45.7 µM (inactive)	63.4 µM (inactive)	42.8 µM (inactive)	> 100 µM (inactive)	66.7 µM (inactive)	24.2 µM (inactive)	49.2 µM (inactive)	32.1 µM (inactive)	54.7 µM (inactive)	43.5 µM (inactive)	70.8 µM (inactive)	47.6 µM (inactive)	55.8 µM (inactive)	47.5 µM (inactive)	45.4 µM (inactive)	> 100 µM (inactive)
